Activity calls are given as the source filed them. How the calls were made is not given here.
System: GENE-TOX genotoxicity assays, various organisms and cells
Assay: GENE-TOX mutagenicity studies
Settings: for call: Assay Type: In vivo carcinogenicity studies
[1] = Species/Cell Type: Chinese hamster lung (V79) cells, Assay Type: Forward gene mutation at the HPRT or ouabain locus, Assay Code: V79-*, Activation: With metabolic activation, Evaluation Type: Evaluation A (Pre-1980)
[2] = Species/Cell Type: Salmonella typhimurium (one or more of the five standard strains: TA98, TA100, TA1535, TA1537, and TA1538), Assay Type: Histidine reverse gene mutation, Ames assay, Assay Code: SAL+, Evaluation Type: Evaluation A (Pre-1980)
[3] = Species/Cell Type: Escherichia coli polA (W3119 vs P3478), Assay Type: Rec-assay, DNA effects (bacterial DNA repair), Assay Code: RE1+, Evaluation Type: Evaluation A (Pre-1980)
[4] = Species/Cell Type: Human lymphocytes, Assay Type: Sister-chromatid exchange (SCE) in vitro, Assay Code: SCL+, Evaluation Type: Evaluation B (Post-1980)
[5] = Species/Cell Type: Human, Assay Type: Sister-chromatid exchange (SCE) in vitro, Assay Code: SC1+, Evaluation Type: Evaluation B (Post-1980)
[6] = Species/Cell Type: Nonhuman, Assay Code: CCGT, Evaluation Type: Evaluation A (Pre-1980)
[7] = Species/Cell Type: Nonhuman, Assay Type: Sister-chromatid exchange (SCE) in vitro, Assay Code: SC2+, Evaluation Type: Evaluation B (Post-1980)
[8] = Species/Cell Type: Saccharomyces cerevisiae, Assay Type: Mitotic recombination or gene conversion, Assay Code: YECT, Evaluation Type: Evaluation A (Pre-1980)
[9] = Species/Cell Type: Human lymphocytes, Assay Type: Sister-chromatid exchange (SCE) in vivo, Assay Code: SCY+, Evaluation Type: Evaluation B (Post-1980)
[10] = Species/Cell Type: Salmonella typhimurium (one or more of the five standard strains: TA98, TA100, TA1535, TA1537, and TA1538), Assay Type: Histidine reverse gene mutation, Ames assay, Assay Code: SALT, Evaluation Type: Evaluation A (Pre-1980)
[11] = Species/Cell Type: Nonhuman, Assay Type: Sister-chromatid exchange (SCE) in vitro, Assay Code: SC2T, Evaluation Type: Evaluation A (Pre-1980)

O[C@@H]1[C@@H](O)[C@@H](O)c2c(cc3ccc4cccc5ccc2c3c45)[C@H]1O was tested, and the mutagenic call [1] was “inactive; negative”.

For CCCOc1ccc(CC(=O)NN)cc1CN(CC)CC, the mutagenic call (Species/Cell Type: Saccharomyces cerevisiae, Assay Type: Reverse gene mutation, Assay Code: YERT, Evaluation Type: Evaluation A (Pre-1980)) was “no conclusion”.

For O=C(NO)c1cc2ccccc2[nH]1, the mutagenic call [2] was “active; positive”.

For Nc1ccc2cc3ccc(N)cc3nc2c1, the mutagenic call (Species/Cell Type: Drosophila melanogaster, Assay Type: Aneuploidy, sex chromosome gain, chromosome aberrations, Assay Code: DAGT, Evaluation Type: Evaluation A (Pre-1980)) was “no conclusion”, the mutagenic call (Species/Cell Type: Drosophila melanogaster, Assay Type: Aneuploidy, whole sex chromosome loss, chromosome aberrations, Assay Code: DAC+F, Evaluation Type: Evaluation A (Pre-1980)) was “active; positive” and the mutagenic call [3] was “active; positive”. For the same compound, the mutagenic call [4] was “active; positive”, the mutagenic call [5] was “active; positive” and the mutagenic call (Species/Cell Type: Mouse lymphoma (L5178Y) cells, Assay Type: Forward gene mutation at the thymidine kinase (TK) locus, chromosome aberrations, Assay Code: L51+, Evaluation Type: Evaluation A (Pre-1980)) was “active; positive”. The call [6] was “no conclusion”, the mutagenic call [7] was “active; positive” and the mutagenic call (Species/Cell Type: Nonhuman, Assay Type: Sister-chromatid exchange (SCE) in vitro, Assay Code: SC2+D, Dose Response: With dose response, Evaluation Type: Evaluation A (Pre-1980)) was “active; positive”. For the same compound, the mutagenic call (Species/Cell Type: Nonhuman, Assay Type: Sister-chromatid exchange (SCE) in vivo, Assay Code: SC3-, Evaluation Type: Evaluation A (Pre-1980)) was “inactive; negative”, the mutagenic call (Species/Cell Type: Nonhuman, Assay Type: Sister-chromatid exchange (SCE) in vivo, Assay Code: SC3T, Evaluation Type: Evaluation B (Post-1980)) was “no conclusion” and the mutagenic call (Species/Cell Type: Saccharomyces cerevisiae, Assay Type: Mitotic recombination or gene conversion, Assay Code: YEC+, Evaluation Type: Evaluation A (Pre-1980)) was “active; positive”. For the same compound, the mutagenic call [8] was “no conclusion” and the mutagenic call [2] was “active; positive”.

Cn1sccc1=O was tested, and the mutagenic call (Species/Cell Type: Mammalian polychromatic erythrocytes, Assay Type: Micronucleus test, chromosome aberrations, Assay Code: MNT-, Evaluation Type: Evaluation B (Post-1980)) was “inactive; negative”.

For O=C1C=C(N2CC2)c2ccccc2C1=O, the mutagenic call (Species/Cell Type: Drosophila melanogaster, Assay Type: Sex-linked recessive lethal gene mutation, Assay Code: SRL+, Evaluation Type: Evaluation A (Pre-1980)) was “active; positive”.

With CC(=O)c1ccccc1 the mutagenic call (Species/Cell Type: Escherichia coli polA (W3110 vs P3478), Assay Type: Rec-assay, DNA effects (bacterial DNA repair), Assay Code: RE2-, Evaluation Type: Evaluation A (Pre-1980)) was “inactive; negative” and the mutagenic call (Species/Cell Type: Escherichia coli polA (W3119 vs P3478), Assay Type: Rec-assay, DNA effects (bacterial DNA repair), Assay Code: RE1-, Evaluation Type: Evaluation A (Pre-1980)) was “inactive; negative”.

For COc1ccc(C)cc1N, the call (Species/Cell Type: Nonhuman, Assay Code: CCG+, Evaluation Type: Evaluation A (Pre-1980)) was “active; positive”.

In the case of CCCCCc1cc(O)c2c(c1)OC(C)(C)[C@@H]1CCC(C)=C[C@@H]21, the mutagenic call (Species/Cell Type: Fischer rat embryo (RLV/1706) cells, Assay Type: Cell transformation, viral enhanced, Assay Code: CTR+, Evaluation Type: Evaluation A (Pre-1980)) is reported as “active; positive”, the mutagenic call (Species/Cell Type: Human diploid fibroblasts, Assay Type: Unscheduled DNA synthesis (UDS) in vitro, DNA effects, Assay Code: UDH-, Evaluation Type: Evaluation A (Pre-1980)) is reported as “inactive; negative” and the mutagenic call (Species/Cell Type: Human lymphocytes or leukocytes, Assay Type: Chromosome aberrations in vivo, Assay Code: CY8-, Evaluation Type: Evaluation A (Pre-1980)) is reported as “inactive; negative”. For the same compound, the mutagenic call [9] was “active; positive”, the mutagenic call (Species/Cell Type: Human, Assay Type: Sister-chromatid exchange (SCE) in vitro, Assay Code: SC1-, Evaluation Type: Evaluation A (Pre-1980)) was “inactive; negative” and the mutagenic call (Species/Cell Type: Mammalian polychromatic erythrocytes, Assay Type: Micronucleus test, chromosome aberrations, Assay Code: MNT+, Evaluation Type: Evaluation B (Post-1980)) was “active; positive”. The mutagenic call (Species/Cell Type: Mammalian polychromatic erythrocytes, Assay Type: Micronucleus test, chromosome aberrations, Assay Code: MNTT, Evaluation Type: Evaluation A (Pre-1980)) was “no conclusion” and the mutagenic call (Species/Cell Type: Mouse, Sex: Male, Assay Type: Sperm morphology, Assay Code: SPI+, Evaluation Type: Evaluation A (Pre-1980)) was “active; positive”.

In the case of Nc1ccc(C(=O)O)c(O)c1, the mutagenic call (Species/Cell Type: Escherichia coli polA (W3119 vs P3478), Assay Type: Rec-assay, DNA effects (bacterial DNA repair), Assay Code: RE1T, Evaluation Type: Evaluation A (Pre-1980)) is reported as “no conclusion”.

With O=C(O)CNCP(=O)(O)O the mutagenic call [4] was “active; positive” and the mutagenic call [5] was “active; positive”.

In the case of O=S(=O)(O)c1cc(-n2nc3ccc4ccccc4c3n2)ccc1/C=C/c1ccccc1, the mutagenic call (Species/Cell Type: Rodents, Sex: Male, Assay Type: Dominant lethal test, Assay Code: DLT-, Evaluation Type: Evaluation A (Pre-1980)) is reported as “inactive; negative”, the mutagenic call [8] is reported as “no conclusion” and the mutagenic call [10] is reported as “no conclusion”.

With O=CNc1nc(-c2cc([N+](=O)[O-])cs2)cs1 the mutagenic call [2] was “active; positive”.

In the case of C1CC[C@H]2O[C@H]2C1, the mutagenic call [7] is reported as “active; positive” and the mutagenic call [11] is reported as “no conclusion”.

CO[C@@H]1[C@H](O)C[C@@H](O[C@@H]2C[C@H](Oc3cc4cc5c(c(O)c4c(O)c3C)C(=O)[C@@H](O[C@H]3C[C@@H](O[C@H]4C[C@@H](O[C@H]6C[C@](C)(O)[C@@H](OC(C)=O)[C@H](C)O6)[C@H](O)[C@@H](C)O4)[C@H](O)[C@@H](C)O3)[C@H]([C@H](OC)C(=O)[C@@H](O)[C@@H](C)O)C5)O[C@H](C)[C@@H]2OC(C)=O)O[C@@H]1C was tested, and the mutagenic call (Species/Cell Type: Chinese hamster ovary (CHO) cells, Assay Type: Forward gene mutation at the HPRT locus, Assay Code: CHO+, Evaluation Type: Evaluation B (Post-1980)) was “active; positive”.

In the case of CC=O, the mutagenic call [3] is reported as “active; positive”, the mutagenic call (Species/Cell Type: Human lymphocytes, Assay Type: Sister-chromatid exchange (SCE) in vitro, Assay Code: SCL+D, Dose Response: With dose response, Evaluation Type: Evaluation A (Pre-1980)) is reported as “active; positive” and the mutagenic call (Species/Cell Type: Human, Assay Type: Sister-chromatid exchange (SCE) in vitro, Assay Code: SC1+D, Dose Response: With dose response, Evaluation Type: Evaluation A (Pre-1980)) is reported as “active; positive”. For the same compound, the mutagenic call (Species/Cell Type: Nonhuman, Assay Type: Sister-chromatid exchange (SCE) in vitro, Assay Code: SC2+, Evaluation Type: Evaluation A (Pre-1980)) was “active; positive” and the mutagenic call (Species/Cell Type: Nonhuman, Assay Type: Sister-chromatid exchange (SCE) in vivo, Assay Code: SC3+D, Dose Response: With dose response, Evaluation Type: Evaluation B (Post-1980)) was “active; positive”.

With C[S-].C[S-].N#[O+].N#[O+].N#[O+].N#[O+].[Fe].[Fe] the mutagenic call (Species/Cell Type: Nonhuman, Assay Type: Sister-chromatid exchange (SCE) in vitro, Assay Code: SC2T, Evaluation Type: Evaluation B (Post-1980)) was “no conclusion”.

For c1ccc2c(c1)-c1cccc3cccc-2c13, the mutagenic call (Species/Cell Type: Chinese hamster ovary (CHO) cells, Assay Type: Forward gene mutation at the HPRT locus, Assay Code: CHO+*, Activation: With metabolic activation, Evaluation Type: Evaluation B (Post-1980)) was “active; positive”, the mutagenic call (Species/Cell Type: Fischer rat embryo (RLV/1706) cells, Assay Type: Cell transformation, viral enhanced, Assay Code: CTRT, Evaluation Type: Evaluation A (Pre-1980)) was “no conclusion” and the mutagenic call (Species/Cell Type: Nonhuman, Assay Type: Sister-chromatid exchange (SCE) in vitro, Assay Code: SC2+D, Dose Response: With dose response, Evaluation Type: Evaluation B (Post-1980)) was “active; positive”. The mutagenic call (Species/Cell Type: Nonhuman, Assay Type: Sister-chromatid exchange (SCE) in vivo, Assay Code: SC3-, Evaluation Type: Evaluation B (Post-1980)) was “inactive; negative”.

In the case of CS(=O)(=O)OC[C@H](O)[C@@H]1CO1, the mutagenic call (Species/Cell Type: Allium cepa, Assay Type: Chromosome aberrations, Assay Code: ALC+D, Dose Response: With dose response, Evaluation Type: Evaluation A (Pre-1980)) is reported as “active; positive”.

Cc1c2c(cc3ccccc13)-c1ccccc1C(O)C2O (centres undefined) was tested, and the mutagenic call [1] was “inactive; negative”, the call [6] was “no conclusion” and the mutagenic call [11] was “no conclusion”. For the same compound, the mutagenic call [10] was “no conclusion”.

In the case of CCCCc1nc(Cl)c(CO)n1Cc1ccc(-c2ccccc2-c2nnn[nH]2)cc1, the mutagenic call (Species/Cell Type: Drosophila melanogaster, Assay Type: Sex-linked recessive lethal gene mutation, Assay Code: SRLT, Evaluation Type: Evaluation A (Pre-1980)) is reported as “no conclusion” and the mutagenic call (Species/Cell Type: Drosophila melanogaster, Sex: Male, Assay Type: Heritable translocation test, chromosome aberrations, Assay Code: DHTT, Evaluation Type: Evaluation A (Pre-1980)) is reported as “no conclusion”.

With N#CS the mutagenic call (Species/Cell Type: Glycine max (soybean), Assay Type: Gene mutation, Assay Code: GLM-, Evaluation Type: Evaluation A (Pre-1980)) was “inactive; negative” and the mutagenic call [10] was “no conclusion”.

For C[C@@H]1[C@H](O)[C@@H](C)/C=C/C=C/C=C/C=C/C=C/C=C/C=C/[C@H](O[C@@H]2O[C@H](C)[C@@H](O)[C@H](N)[C@@H]2O)C[C@@H]2O[C@](O)(C[C@@H](O)C[C@@H](O)[C@H](O)CC[C@@H](O)C[C@@H](O)CC(=O)O[C@H]1C)C[C@H](O)[C@H]2C(=O)O, the mutagenic call (Species/Cell Type: Aspergillus nidulans, Assay Type: Aneuploidy, chromosome aberrations, Assay Code: ASN+, Evaluation Type: Evaluation A (Pre-1980)) was “active; positive”.

For COc1cc2c(c3oc(=O)c4c(c13)CCOC4=O)C1CC(O)OC1O2 (centres undefined), the mutagenic call [10] was “no conclusion”.

For CC1=NN(c2ccc([N+](=O)[O-])cc2)C(=O)C1[N+](=O)[O-] (centres undefined), the mutagenic call [3] was “active; positive” and the mutagenic call [2] was “active; positive”.

With CC(C(=O)O)c1cccc(C(=O)c2ccccc2)c1 (centres undefined) the mutagenic call [9] was “active; positive”.

Reference: PubChem BioAssay AID1259408 (Genetic Toxicology Data Bank (GENE-TOX), 2018)
